Here are results for eight compounds from ChEMBL document CHEMBL4619718, “Discovery of cyclic guanidine-linked sulfonamides as inhibitors of LMTK3 kinase” (Bioorg Med Chem Lett, 2020).

The source made the active and inactive calls. No cut-off for these calls is given here. A value given as a limit tells only on which side of the number the result lay.

Assay [1] has as its system MCF7. Kind of assay: Antiproliferative activity against human MCF7 cells at 5 uM incubated for 6 days by MTT assay relative to control. It counts as functional. In general terms: Formazan colour is commonly taken as a measure of viable cells.
Assay [2] addresses T1, Serine/threonine-protein kinase LMTK3 (Homo sapiens, UniProt Q96Q04).
T1 sequence (Q96Q04 whole entry): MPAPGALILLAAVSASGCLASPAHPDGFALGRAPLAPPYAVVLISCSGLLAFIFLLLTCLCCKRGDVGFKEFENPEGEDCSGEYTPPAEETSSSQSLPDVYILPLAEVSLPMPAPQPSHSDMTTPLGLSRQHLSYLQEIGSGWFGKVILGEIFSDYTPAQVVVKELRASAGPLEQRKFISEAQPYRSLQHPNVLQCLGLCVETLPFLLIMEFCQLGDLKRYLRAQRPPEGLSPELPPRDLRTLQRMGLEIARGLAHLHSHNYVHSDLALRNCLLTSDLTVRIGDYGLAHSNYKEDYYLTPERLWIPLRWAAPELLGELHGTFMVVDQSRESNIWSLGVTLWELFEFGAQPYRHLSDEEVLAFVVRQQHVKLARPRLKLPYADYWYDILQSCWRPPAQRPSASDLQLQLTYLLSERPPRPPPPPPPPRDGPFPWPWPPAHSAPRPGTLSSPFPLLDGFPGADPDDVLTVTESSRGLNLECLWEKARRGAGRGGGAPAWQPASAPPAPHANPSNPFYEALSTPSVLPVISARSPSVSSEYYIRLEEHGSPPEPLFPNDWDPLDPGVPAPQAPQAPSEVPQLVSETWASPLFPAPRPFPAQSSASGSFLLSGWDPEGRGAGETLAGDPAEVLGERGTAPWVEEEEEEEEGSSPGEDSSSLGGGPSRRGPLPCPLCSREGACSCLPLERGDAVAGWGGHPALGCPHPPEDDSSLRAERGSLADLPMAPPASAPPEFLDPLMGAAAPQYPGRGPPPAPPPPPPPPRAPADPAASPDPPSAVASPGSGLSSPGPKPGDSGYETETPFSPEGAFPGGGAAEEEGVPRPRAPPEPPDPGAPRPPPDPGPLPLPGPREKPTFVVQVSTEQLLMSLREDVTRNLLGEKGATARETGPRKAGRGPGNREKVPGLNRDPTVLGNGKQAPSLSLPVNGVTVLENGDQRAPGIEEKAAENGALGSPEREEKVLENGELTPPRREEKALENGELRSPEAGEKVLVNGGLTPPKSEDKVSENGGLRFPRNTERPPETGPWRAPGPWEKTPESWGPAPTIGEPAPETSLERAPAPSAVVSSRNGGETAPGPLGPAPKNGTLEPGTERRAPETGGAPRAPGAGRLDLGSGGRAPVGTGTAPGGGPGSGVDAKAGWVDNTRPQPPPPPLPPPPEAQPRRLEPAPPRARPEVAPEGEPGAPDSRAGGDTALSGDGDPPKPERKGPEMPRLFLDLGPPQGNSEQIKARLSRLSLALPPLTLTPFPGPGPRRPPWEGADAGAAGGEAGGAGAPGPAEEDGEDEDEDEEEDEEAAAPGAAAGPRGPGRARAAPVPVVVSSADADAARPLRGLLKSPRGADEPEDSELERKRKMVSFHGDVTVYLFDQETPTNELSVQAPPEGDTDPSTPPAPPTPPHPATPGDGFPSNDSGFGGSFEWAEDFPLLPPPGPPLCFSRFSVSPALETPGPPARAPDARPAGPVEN
The assay can be described thus: Inhibition of LMTK3 (unknown origin).

Assay [3] has as its system T47D. Kind of assay: Antiproliferative activity against human T47D cells at 10 uM incubated for 6 days by MTT assay relative to control. The format is functional.
Assay [4] addresses Insulin-like growth factor 1 receptor (Homo sapiens) (UniProt P08069). The assay can be described thus: Inhibition of IGF1R (unknown origin) at 10 uM relative to control.
The target of assay [5] is T2, Serine/threonine-protein kinase LMTK3 (Homo sapiens) (UniProt Q96Q04).
T2 sequence (whole entry): T1 sequence (Q96Q04 whole entry)
The assay can be described thus: Binding affinity to hyper glycosylated LMTK3 (unknown origin) assessed as change in melting temperature at 10 uM by CETSA-based Western blot analysis. For orientation: In western blotting, separated proteins are transferred to a membrane and probed.

Assay [6] concerns the target Insulin receptor (Homo sapiens) (UniProt P06213). Kind of assay: Inhibition of INSR (unknown origin) at 10 uM relative to control.
Assay [7] has as its target T3, Muscle, skeletal receptor tyrosine-protein kinase (Homo sapiens) (UniProt O15146).
T3 sequence (whole entry): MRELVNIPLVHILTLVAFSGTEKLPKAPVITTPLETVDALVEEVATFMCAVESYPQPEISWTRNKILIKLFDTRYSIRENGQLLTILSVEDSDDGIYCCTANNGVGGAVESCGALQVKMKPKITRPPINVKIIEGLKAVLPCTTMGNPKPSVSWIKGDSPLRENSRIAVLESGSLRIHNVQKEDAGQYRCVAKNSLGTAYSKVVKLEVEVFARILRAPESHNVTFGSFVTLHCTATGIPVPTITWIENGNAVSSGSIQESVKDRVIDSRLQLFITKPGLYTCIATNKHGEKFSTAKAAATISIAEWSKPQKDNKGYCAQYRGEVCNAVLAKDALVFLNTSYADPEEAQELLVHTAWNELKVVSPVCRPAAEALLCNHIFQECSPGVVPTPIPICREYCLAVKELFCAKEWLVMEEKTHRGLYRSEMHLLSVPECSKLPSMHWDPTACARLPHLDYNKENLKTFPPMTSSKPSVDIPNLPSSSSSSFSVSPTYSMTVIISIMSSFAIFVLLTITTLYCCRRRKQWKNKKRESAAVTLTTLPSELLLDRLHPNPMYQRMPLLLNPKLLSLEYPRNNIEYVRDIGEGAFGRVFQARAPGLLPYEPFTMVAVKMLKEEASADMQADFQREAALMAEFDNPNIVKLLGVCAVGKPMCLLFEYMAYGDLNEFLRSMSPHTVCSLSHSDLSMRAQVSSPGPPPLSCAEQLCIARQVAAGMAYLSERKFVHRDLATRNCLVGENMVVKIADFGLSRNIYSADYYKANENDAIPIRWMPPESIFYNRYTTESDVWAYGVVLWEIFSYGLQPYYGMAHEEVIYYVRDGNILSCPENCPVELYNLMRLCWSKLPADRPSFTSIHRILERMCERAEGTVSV
Kind of assay: Inhibition of MUSK (unknown origin) at 10 uM relative to control.

For assay [8], the system named is T47D. Kind of assay: Antiproliferative activity against human T47D cells at 5 uM incubated for 6 days by MTT assay relative to control. It counts as functional.
Assay [9] deals with T2, Serine/threonine-protein kinase LMTK3 (Homo sapiens). Kind of assay: Binding affinity to full length LMTK3 (unknown origin) assessed as change in melting temperature at 10 uM by CETSA-based Western blot analysis.
Assay [10] shares this target. The assay can be described thus: Binding affinity to full length LMTK3 (unknown origin) assessed as thermal stabilization of protein at 0.3 to 1 uM at 54 degC incubated for 3 mins followed by 3 min incubated at room temperature by CETSA-based Western blot analysis.
Assay [11] relates to MCF7. Kind of assay: Antiproliferative activity against human MCF7 cells at 10 uM incubated for 6 days by MTT assay relative to control. The format is functional.
Assay [12] concerns the target T2, Serine/threonine-protein kinase LMTK3 (Homo sapiens). The assay can be described thus: Binding affinity to full length LMTK3 (unknown origin) assessed as thermal stabilization of protein at 54 degC incubated for 3 mins followed by 3 min incubated at room temperature by CETSA-based Western blot analysis.
Assay [13] addresses BDNF/NT-3 growth factors receptor (Homo sapiens) (UniProt Q16620). The assay can be described thus: Inhibition of TRKB (unknown origin) at 10 uM relative to control.
Assay [14] deals with T3, Muscle, skeletal receptor tyrosine-protein kinase (Homo sapiens). Kind of assay: Inhibition of MUSK (unknown origin) at 100 nM relative to control.
The target of assay [15] is BDNF/NT-3 growth factors receptor (Homo sapiens) (UniProt Q16620). Conditions: 1.52 nM.
Description: Inhibition of TRKB (unknown origin) at 1.52 nM relative to control
Assay [16] relates to MCF7. The assay can be described thus: Antiproliferative activity against human MCF7 cells at 20 uM incubated for 6 days by MTT assay relative to control. It counts as functional.
The subject of assay [17] is T47D. Kind of assay: Antiproliferative activity against human T47D cells at 20 uM incubated for 6 days by MTT assay relative to control. It counts as functional.

Chain of Insulin-like growth factor 1 receptor (Homo sapiens) (P08069 31-736 limits assumed): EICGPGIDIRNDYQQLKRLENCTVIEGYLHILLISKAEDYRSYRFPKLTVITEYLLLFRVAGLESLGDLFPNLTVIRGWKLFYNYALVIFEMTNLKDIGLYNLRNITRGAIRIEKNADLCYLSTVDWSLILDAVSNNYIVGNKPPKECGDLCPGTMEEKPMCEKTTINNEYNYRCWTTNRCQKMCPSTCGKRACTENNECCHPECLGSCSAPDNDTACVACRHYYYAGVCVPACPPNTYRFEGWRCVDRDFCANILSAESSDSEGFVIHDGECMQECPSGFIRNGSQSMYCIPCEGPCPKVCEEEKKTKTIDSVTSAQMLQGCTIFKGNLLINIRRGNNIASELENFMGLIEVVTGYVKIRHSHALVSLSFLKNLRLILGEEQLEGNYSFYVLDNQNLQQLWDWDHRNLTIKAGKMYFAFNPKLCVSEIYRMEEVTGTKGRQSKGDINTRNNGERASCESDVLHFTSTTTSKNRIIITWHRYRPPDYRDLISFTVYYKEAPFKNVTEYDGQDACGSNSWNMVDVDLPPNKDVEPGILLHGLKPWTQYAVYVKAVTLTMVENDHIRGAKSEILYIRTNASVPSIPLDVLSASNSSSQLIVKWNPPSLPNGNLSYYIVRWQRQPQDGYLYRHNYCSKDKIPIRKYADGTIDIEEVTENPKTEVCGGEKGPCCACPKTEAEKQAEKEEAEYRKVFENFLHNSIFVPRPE
Chain of Insulin-like growth factor 1 receptor (Homo sapiens) (P08069 741-1367 limits assumed): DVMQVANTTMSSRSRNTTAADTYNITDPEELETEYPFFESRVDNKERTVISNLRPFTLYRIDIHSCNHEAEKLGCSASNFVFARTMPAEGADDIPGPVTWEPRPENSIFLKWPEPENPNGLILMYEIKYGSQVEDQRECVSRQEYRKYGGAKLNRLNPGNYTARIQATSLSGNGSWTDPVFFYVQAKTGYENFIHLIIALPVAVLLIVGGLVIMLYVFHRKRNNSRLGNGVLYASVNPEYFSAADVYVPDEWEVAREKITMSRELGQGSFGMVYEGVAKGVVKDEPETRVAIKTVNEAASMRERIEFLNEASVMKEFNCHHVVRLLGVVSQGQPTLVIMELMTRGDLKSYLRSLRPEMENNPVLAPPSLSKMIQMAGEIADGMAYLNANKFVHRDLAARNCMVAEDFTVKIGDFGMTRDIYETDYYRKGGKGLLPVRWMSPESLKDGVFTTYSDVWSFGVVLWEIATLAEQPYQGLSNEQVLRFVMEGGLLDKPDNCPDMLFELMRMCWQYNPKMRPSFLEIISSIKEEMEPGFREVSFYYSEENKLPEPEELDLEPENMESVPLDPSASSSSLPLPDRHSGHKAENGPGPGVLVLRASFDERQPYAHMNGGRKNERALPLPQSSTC
Chain of Insulin receptor (Homo sapiens) (P06213 28-758 limits assumed): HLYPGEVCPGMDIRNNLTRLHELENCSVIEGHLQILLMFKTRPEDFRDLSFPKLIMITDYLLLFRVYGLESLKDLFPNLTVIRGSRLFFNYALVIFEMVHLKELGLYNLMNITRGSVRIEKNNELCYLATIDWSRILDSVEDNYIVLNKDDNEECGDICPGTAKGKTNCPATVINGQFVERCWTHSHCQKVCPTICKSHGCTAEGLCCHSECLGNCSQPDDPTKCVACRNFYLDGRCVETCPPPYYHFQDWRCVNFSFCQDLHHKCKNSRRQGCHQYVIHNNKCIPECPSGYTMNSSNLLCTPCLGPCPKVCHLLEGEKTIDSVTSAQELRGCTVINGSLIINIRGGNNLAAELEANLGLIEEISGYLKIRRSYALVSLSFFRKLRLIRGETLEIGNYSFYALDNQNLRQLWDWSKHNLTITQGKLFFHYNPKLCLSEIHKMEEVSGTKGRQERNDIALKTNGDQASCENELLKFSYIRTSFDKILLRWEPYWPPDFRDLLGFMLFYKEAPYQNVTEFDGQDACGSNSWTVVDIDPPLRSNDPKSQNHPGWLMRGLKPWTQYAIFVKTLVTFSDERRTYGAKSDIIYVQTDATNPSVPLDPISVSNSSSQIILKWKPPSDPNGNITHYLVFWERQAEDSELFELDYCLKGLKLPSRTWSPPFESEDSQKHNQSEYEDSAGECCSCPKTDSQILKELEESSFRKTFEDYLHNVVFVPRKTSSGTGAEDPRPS
Chain of Insulin receptor (Homo sapiens) (P06213 763-1382 limits assumed): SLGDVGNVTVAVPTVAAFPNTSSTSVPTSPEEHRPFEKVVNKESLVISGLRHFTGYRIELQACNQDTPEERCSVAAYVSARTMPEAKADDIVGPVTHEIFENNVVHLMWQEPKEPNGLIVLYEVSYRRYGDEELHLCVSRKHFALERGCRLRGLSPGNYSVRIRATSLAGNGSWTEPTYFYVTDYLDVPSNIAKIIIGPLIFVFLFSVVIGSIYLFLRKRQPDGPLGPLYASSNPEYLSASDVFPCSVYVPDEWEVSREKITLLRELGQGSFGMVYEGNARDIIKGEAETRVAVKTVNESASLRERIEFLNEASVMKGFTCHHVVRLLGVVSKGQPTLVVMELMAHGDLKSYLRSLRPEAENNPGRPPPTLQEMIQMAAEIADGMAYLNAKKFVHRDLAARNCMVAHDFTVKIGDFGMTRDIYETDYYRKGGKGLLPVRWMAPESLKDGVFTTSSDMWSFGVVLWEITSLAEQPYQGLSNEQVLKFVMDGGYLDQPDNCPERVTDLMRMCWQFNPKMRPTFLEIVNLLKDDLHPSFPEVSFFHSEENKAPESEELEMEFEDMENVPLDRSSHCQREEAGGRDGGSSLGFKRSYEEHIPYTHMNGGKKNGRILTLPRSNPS
Chain of BDNF/NT-3 growth factors receptor (Homo sapiens) (Q16620 32-822 limits assumed): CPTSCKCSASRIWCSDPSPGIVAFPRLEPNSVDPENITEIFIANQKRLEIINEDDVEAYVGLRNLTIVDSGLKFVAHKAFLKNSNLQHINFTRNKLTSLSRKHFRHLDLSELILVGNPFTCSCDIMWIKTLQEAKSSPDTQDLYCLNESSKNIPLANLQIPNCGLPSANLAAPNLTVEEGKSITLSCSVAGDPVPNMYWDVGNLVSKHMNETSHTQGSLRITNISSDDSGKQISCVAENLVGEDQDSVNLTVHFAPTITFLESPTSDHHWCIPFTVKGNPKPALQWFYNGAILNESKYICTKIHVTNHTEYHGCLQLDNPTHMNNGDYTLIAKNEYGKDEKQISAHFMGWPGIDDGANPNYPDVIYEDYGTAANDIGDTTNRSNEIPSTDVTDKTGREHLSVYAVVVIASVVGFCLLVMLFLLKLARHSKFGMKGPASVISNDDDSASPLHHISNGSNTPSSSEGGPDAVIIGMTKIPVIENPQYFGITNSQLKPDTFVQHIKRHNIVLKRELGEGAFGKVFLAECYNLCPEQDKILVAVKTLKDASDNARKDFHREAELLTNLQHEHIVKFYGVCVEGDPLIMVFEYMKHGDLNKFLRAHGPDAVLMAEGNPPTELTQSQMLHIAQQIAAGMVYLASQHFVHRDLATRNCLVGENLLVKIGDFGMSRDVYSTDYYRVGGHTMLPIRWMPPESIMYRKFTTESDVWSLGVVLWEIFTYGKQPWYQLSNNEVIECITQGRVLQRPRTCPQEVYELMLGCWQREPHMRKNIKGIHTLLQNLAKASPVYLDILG

What is called IC50 is the concentration that inhibits the measured activity by half. Usually inhibition stands for the relative decrease from the control value, in per cent. Take `N=C1NC[C@H](CC2CCCCC2)N1C[C@H](Cc1ccccc1)NS(=O)(=O)c1ccccc1`: the Activity in [1] came out at 60%; in assay [3], 100%; in assay [8], 60%; in assay [11], 100%. Further, in assay [2], the IC50 came to 1610 nM. In addition, the inhibition in [4] worked out at 11.4%; in [6] it was 18.4%; in assay [7], 103%; in assay [13], 10.6%. For the same compound, the result in [5], in assay [9], in [10] and in [12] was Active.

`CN1CCN(c2ccc(C(=O)Nc3n[nH]c4ccc(Cc5cc(F)cc(F)c5)cc34)c(NC3CCOCC3)c2)CC1` [ENTRECTINIB] gave an IC50 in assay [2] of 4650 nM. Also, the figures for the inhibition in assay [14] and in assay [15] were 54.1% and greater than 95%, respectively.

In [2], `N=C1NC[C@H](CC2CCCCC2)N1C[C@H](Cc1ccc(O)cc1)NS(=O)(=O)c1ccccc1Cl` displayed an IC50 of 226 nM. The inhibition came to 16.1% in assay [4], 0.1% in assay [6], 56.8% in assay [7] and 16% in assay [13]. For the same compound, the outcome in assay [12] was inactive.

As to `CC(C)C[C@H]1CNC(=N)N1C[C@H](Cc1ccc(O)cc1)NS(=O)(=O)c1ccccc1Cl`, half-maximal inhibition in [2] (IC50) was put at 210 nM. The inhibition in [4] came out at 15.9%; in [6] it was 7.3%; in [7], 19.8%; in [13], 0.1%.

With `Cc1ccc(S(=O)(=O)N[C@@H](Cc2ccc(O)cc2)CN2C(=N)NC[C@@H]2CC(C)C)cc1`, the IC50 in assay [2] is 308 nM. For the same compound, the inhibition in assay [4] was found to be 7.8%; in assay [6], 3.9%; in assay [7], 22.2%; in assay [13], 0.8%.

With `CC(C)C[C@H]1CNC(=N)N1C[C@H](Cc1ccccc1)NS(=O)(=O)c1ccccc1`, 654 nM corresponded to half-maximal inhibition in assay [2] (IC50). Besides, the Activity in [16] and in [17] was 100% each time. In addition, the inhibition worked out at 8.3% in assay [4], 2.3% in assay [6], 27.3% in assay [7] and 2% in [13].

In assay [2], `Cc1ccc(S(=O)(=O)N[C@@H](Cc2ccc(O)cc2)CN2C(=N)NC[C@@H]2CC2CCCCC2)cc1` returned an IC50 of 318 nM. The Activity in [16] and in assay [17] was 50% throughout. Also, the inhibition in assay [4] stood at 16.1%; in [6], 5.7%; in assay [7] it was 79.8%; in assay [13], 25.3%.

In the case of `C[C@@]1(C(=O)Nc2ccc(F)nc2)CCCN1c1nc(Nc2cc(C3CC3)n[nH]2)c2cccn2n1` [BMS-754807], in [2], the IC50 worked out at 3160 nM. Besides, the inhibition was 75.1% in assay [14] and greater than 95% in assay [15].
